≈ marks a conversion by molar mass, not a printed value.
Tests used:
Candida albicans [1] = test: Antifungal activity against Candida albicans SC5314 assessed as inhibition of yeast cell to hyphae transition after 4 hrs by microscopic analysis; type: functional, organism-based; conditions: SC5314, 4 h
Candida albicans [2] = test: Antifungal activity against Candida albicans SC5314 assessed as inhibition of biofilm formation by XTT assay; type: functional, organism-based
Candida albicans [3] = test: Antifungal activity against Candida albicans SC5314 by CLSI standard M27-A3 method; type: functional

Q: Which results are given for `C=C1C(=O)O[C@H]2C[C@H](C)[C@@H]3CC[C@@]4(C)O[C@@]34C[C@H]12`?
A: IC50 (Candida albicans [1]): 106 µg/mL (≈ 429 µM); IC50 (Candida albicans [2]): 38 µg/mL (≈ 153 µM)

Q: For `C=C(C(=O)O)[C@@H]1CC[C@@]2(C)CCC=C(C)C2C1` (stereo not given in full), which IC50 (Candida albicans [1]) is on record?
A: > 128 µg/mL

Q: And the IC50 (Candida albicans [2])?
A: > 128 µg/mL

Q: How did the IC50 (Candida albicans [2]) turn out when `OC(Cn1cncn1)(Cn1cncn1)c1ccc(F)cc1F` [FLUCONAZOLE] was run?
A: 2 µg/mL (≈ 6.53 µM)

Q: For `C=C1C(=O)O[C@@H]2C[C@@]3(C)CCCC(=C)[C@]3(O)C[C@H]12` [TELEKIN], which IC50 (Candida albicans [1]) is on record?
A: > 128 µg/mL

Q: And the IC50 (Candida albicans [2])?
A: 36 µg/mL (≈ 145 µM)

Q: How did the IC50 (Candida albicans [1]) turn out when `C=C1C(=O)O[C@@H]2C[C@]3(C)[C@@H](CCC(C)=O)[C@@H]3C[C@H]12` was run?
A: 100 µg/mL (≈ 403 µM)

Q: And the IC50 (Candida albicans [2])?
A: > 128 µg/mL

Q: `C=C1C(=O)O[C@@H]2C[C@H](C)C(CCC(C)OC(=O)C(C)CC)=CC[C@H]12` (stereo not given in full) was tested. Which IC50 (Candida albicans [1]) did it give?
A: 105 µg/mL (≈ 314 µM)

Q: What about the IC50 (Candida albicans [2]) of the same compound?
A: > 128 µg/mL

Q: `C=C1C(=O)O[C@@H]2C[C@@]3(C)C[C@@H](O)CC(=C)[C@@H]3C[C@H]12` [IVALIN] was tested. Which IC50 (Candida albicans [1]) did it give?
A: > 128 µg/mL

Q: And the IC50 (Candida albicans [2])?
A: 15.4 µg/mL (≈ 62 µM)

Q: What does the source list for `C=C1C(=O)O[C@@H]2C[C@H](C)C(CCC(C)=O)=CC[C@H]12` [TOMENTOSIN]?
A: IC50 (Candida albicans [1]): 31.6 µg/mL (≈ 127 µM); IC50 (Candida albicans [2]): > 128 µg/mL; MIC50 (Candida albicans [3]): 128 µg/mL (≈ 515 µM)

Q: How did the IC50 (Candida albicans [1]) turn out when `C=C1C(=O)O[C@@H]2C[C@@]3(C)CCC[C@H](C)[C@@]34O[C@H]4[C@H]12` was run?
A: 118 µg/mL (≈ 477 µM)

Q: What about the IC50 (Candida albicans [2]) of the same compound?
A: > 128 µg/mL

Q: Which IC50 (Candida albicans [1]) does the source give for `C=C1C(=O)O[C@@H]2C[C@H](C)C(CCC(C)O)=CC[C@H]12` (stereo not given in full) here?
A: > 128 µg/mL

Q: What about the IC50 (Candida albicans [2]) of the same compound?
A: > 128 µg/mL
